Data from patent publication US20240277874A1, “FLUORESCENCE-MAGNETIC RESONANCE DUAL-MODALITY CONTRAST AGENT, PREPARATION METHOD THEREFOR AND USE THEREOF” (HAINAN POLY PHARMACEUTICAL CO., LTD., priority 2021, published 2024).
Read-outs that look alike come from different tables or passages of the source.

How the values were obtained:
ICR female mice [1] = details: mouse, in vivo, iv
Text: The maximum tolerated dose (MTD) of the contrast agent was preliminarily determined by administration to mice by tail intravenous injection.

[2] = Stability of the aqueous contrast agent solution at room temperature, relative content by HPLC; type: physicochemical; details: aqueous solution 0.1 mg/mL
Method: The aqueous solution of the contrast agent (0.1 mg/mL) was left at room temperature and its stability was measured by calibrating its relative content by the HPLC method at different time points, and the stability of the contrast agent is shown in Table 4.

[3] = Longitudinal relaxation rate (r1), 0.35T nuclear magnetic resonance imaging system, IR sequence; type: physicochemical; details: for r1 in BSA solution(1%): bovine serum protein solution (1%, w/w); for r1 in Water: pure water
Method: The longitudinal relaxation rate (r1) of the contrast agent was determined in a 0.35T small nuclear magnetic resonance imaging system using an IR […] sequence. The relaxation rates of the contrast agent in pure water and in bovine serum protein solution (1%, w/w) in different solvents are shown in Table 3 below.

[4] = system: liver and kidney of ICR mice; experiment: Fluorescence imaging of removed livers and kidneys after magnetic resonance imaging; type: in vivo; details: 6 hours after administration, FIG. 1C
Method: (§1) • 1. IR-820 (new indocyanine green) and 3,6,9-trioxaundecamethylenediamine (1:1-1:5 eq.) were added to the DMSO solution. And then the triethylamine as the deacid reagent was added to the mixture. The mixture reacted at 20-80° C. for 2 h. The desired product B01 was obtained after precipitation. • 2. B01 and DOTA-NHS ([…] is N-hydroxysuccinimide) (1:1-1:3 eq.) were dissolved in DMSO solution, and 1-20 equivalents of triethylamine was added to the mixture. The mixture reacted at 10-40° C. for 24 h. The desired product B02 was obtained after precipitation. • 3. B02 was reacted with 0.5-2 equivalents of gadolinium chloride hydrate in DMSO at 10-50° C. for 10 h-50 h, and the desired product PL-001 was obtained after precipitation, yield of 83%, purity of 91%. • 4. The final product was dissolved in pure water to create a solution. The product was administered to ICR mice by tail intravenous injection at doses of 5 mg/kg and 30 mg/kg, respectively. Magnetic resonance T1-enhanced imaging (SE sequence) was performed on the liver and kidney of the mice before and after the administration of the product. After the magnetic resonance imaging was completed, the livers and kidneys were removed for fluorescence imaging. […] From the figure, it can be seen that the magnetic resonance enhancement and fluorescence imaging results of the liver and kidney were basically consistent.

[5] = system: liver and kidney of ICR mice; experiment: Magnetic resonance T1-enhanced imaging (SE sequence) of liver and kidney after tail intravenous injection; type: in vivo; details: tail iv 5 mg/kg and 30 mg/kg, FIG. 1A
Method: as §1

[6] = normal people, 20 minutes after intravenous injection; cited from earlier work
ICR female mice [7] = details: value marked * with footnote not given; 60 is not among the tested doses; cited from earlier work
[8] = system: murine hepatocellular carcinoma cells H22; experiment: Cell entry rate of the contrast agent by flow cytometry; type: cell-based; details: compared among PL-002, PL-003, PL-004 and PL-006, FIG. 2
Method: The cell entry rate of the contrast agent at the cell level was determined by flow cytometers. Logarithmically grown murine hepatocellular carcinoma cells H22 were collected and spread evenly in 12-well plates, with an approximate cell number of 1.5×10^5 per well.

[9] = system: H22 liver in situ tumors in Balb/c mice; experiment: Magnetic resonance T1-enhanced imaging of liver in situ tumors, GE 3.0T system; type: in vivo; details: Balb/c mice with H22 liver in situ tumor, 1 mg/mL solution, 5 mL/kg tail iv, FIG. 3
Method: Magnetic resonance imaging of liver in situ tumors with a contrast agent was performed using a GE 3.0T magnetic resonance imaging system. H22 cells were inoculated in Balb/c mice through liver in-situ injection, and liver conditions were observed through magnetic resonance. After the tumor was formed, 1 mg/mL contrast agent solution (5 mL/kg) was injected through the tail intravenous, and the liver was subjected to magnetic resonance T1-enhanced imaging at different time points after the administration of the agent.

[10] = system: major organs of liver in situ tumor mice; experiment: Tissue fluorescence of liver in situ tumor mice, small animal live imaging analyzer; type: in vivo; details: organs removed after magnetic resonance imaging, FIG. 4
Text: Liver in situ tumor mice tissue fluorescence was observed by a small animal live imaging analyzer (Perkin Elmer). After magnetic resonance imaging, the major organs of the mice were removed and observed by live imaging, and the results are shown in FIG. 4.

Structure (SMILES) | MTD (ICR female mice [1]) [mg/kg] | decomposition rate % ([2]; 0 h) [%] | decomposition rate % ([2]; 2 h) | decomposition rate % ([2]; 24 h) | decomposition rate % ([2]; 48 h) | r1 in BSA solution(1%) [3] [mM⁻¹ s⁻¹] | r1 in Water [3] [mM⁻¹ s⁻¹] | fluorescence imaging of liver and kidney [4] | magnetic resonance T1-enhanced imaging of liver and kidney [5] | eliminated from the blood [6] | MTD (ICR female mice [7]) | cell entry rate [8] | magnetic resonance T1 enhancement of the tumor site [9] | distinction of tumor from normal tissue and fluorescence intensity [10]
CC1(C)C(/C=C/C2=C(Oc3ccc(CCC(=O)NCCOCCOCCOCCNC(=O)CN4CCN(CC(=O)[O-])CCN(CC(=O)[O-])CCN(CC(=O)[O-])CC4)cc3)C(=C/C=C3/N(CCCCS(=O)(=O)O)c4ccc5ccccc5c4C3(C)C)/CCC2)=[N+](CCCCS(=O)(=O)O)c2ccc3ccccc3c21.[Gd+3] [PL-002] | 125 | 0 | <LOQ | <LOQ | <LOQ | 16.2 | 11.8 | – | – | – | – | – | – | –
CC1(C)C(=CC=C2CCCC(C=CC3=[N+](CCCCS(=O)(=O)O)c4ccc5ccccc5c4C3(C)C)=C2NCCCOCCOCCOCCCNC(=O)CN2CCN(CC(=O)[O-])CCN(CC(=O)[O-])CCN(CC(=O)[O-])CC2)N(CCCCS(=O)(=O)O)c2ccc3ccccc3c21.[Gd+3] [PL-001] | 75 | 0 | 5.9% | 40.0% | 65.4% | – | – | significant fluorescence of the liver and kidney | significant enhancement of liver and kidney | – | – | – | – | –
CC1(C)C(/C=C/C=C/C=C/C=C2\N(CCCCS(=O)(=O)O)c3ccc4ccccc4c3C2(C)C)=[N+](CCCCS(=O)(=O)[O-])c2ccc3ccccc3c21 [ICG, Indocyanine green] | – | – | – | – | – | – | – | – | – | about 97% | 60* mg/kg | – | – | –
CC1(C)C(/C=C/C2=C(Oc3ccc(CCC(=O)NCCCCCCCCCCNC(=O)CN4CCN(CC(=O)[O-])CCN(CC(=O)[O-])CCN(CC(=O)[O-])CC4)cc3)C(=C/C=C3/N(CCCCS(=O)(=O)O)c4ccc5ccccc5c4C3(C)C)/CCC2)=[N+](CCCCS(=O)(=O)O)c2ccc3ccccc3c21.[Gd+3] [PL-003] | 150 | 0 | <LOQ | <LOQ | <LOQ | 18.9 | 15.4 | – | – | – | – | fastest cellular entry | better enhancement effect | tumor is distinguished from the normal tissue and has better fluorescence intensity
CC1(C)C(/C=C/C2=C(Oc3ccc(CCC(=O)NCCOCCOCCNC(=O)CN4CCN(CC(=O)[O-])CCN(CC(=O)[O-])CCN(CC(=O)[O-])CC4)cc3)C(=C/C=C3/N(CCCCS(=O)(=O)O)c4ccc5ccccc5c4C3(C)C)/CCC2)=[N+](CCCCS(=O)(=O)O)c2ccc3ccccc3c21.[Gd+3] [PL-004] | 125 | 0 | <LOQ | <LOQ | <LOQ | 17.6 | 14.7 | – | – | – | – | – | – | –
